Measured values as given in patent US20240277684A1, “BLOCKADE OF CHEMOKINE (C-C MOTIF) RECEPTOR 2 DURING FLUID RESUSCITATION” (University of South Florida, priority 2022, published 2024).

Tests used:
hemorrhagic shock [1] = experiment: Example 1 first series: 30 min hemorrhagic shock, fluid resuscitation until t=90 min; type: in vivo, rat; conditions: 5.5 μmol/kg Maraviroc at t=30 min, vs vehicle or 1.1 INCB3284
Procedure: In vivo animal experiments. All procedures were performed in accordance with the National Institutes of Health Guidelines for Use of Laboratory Animals and were approved by the University of South Florida Institutional Animal Care and Use Committeee (IS00008139). Male Sprague-Dawley rats (300-400 g, Envigo, Indianapolis, IN, USA). were anesthetized with 1.7% isoflurane via nose-cone inhalation with the SomnoSuite anesthesia system (Kent Scientific, Torrington, CT, USA). […] The left femoral artery was isolated and cannulated with a 24-gauge peripheral intravenous catheter to allow for blood withdrawal, hemodynamic monitoring, drug administration, and fluid resuscitation. Hemodynamics were continuously monitored with the SurgivetV6400 blood pressure monitor (Med-Electronics, Beltsville, MD, USA), and blood pressures and heart rate were recorded at 1-10 min intervals. All animals were observed over a 10 min period to ensure hemodynamic stability before start of the experiments. All experiments were performed randomized in alternating order. […] Physiol Res 2019; 68(4):675-679; Nassoiy S P, et al., Effects of the Kv7 voltage-activated potassium channel inhibitor linopirdine in rat models of haemorrhagic shock. Clin Exp Pharmacol Physiol 2018; Nassoiy S P, et al., Kv7 voltage-activated potassium channel inhibitors reduce fluid resuscitation requirements after hemorrhagic shock in rats. J Biomed Sci 2017; 24(1):8; Bach H Ht, et al., Proteasome inhibition prolongs survival during lethal hemorrhagic shock in rats. J Trauma Acute Care Surg 2013; 74(2):499-507; Bach H Ht, et al., Chemokine (C-X-C motif) receptor 4 and atypical chemokine receptor 3 regulate vascular alpha(1)-adrenergic receptor function. Mol Med 2014; 20:435-447), with slight modifications. In brief, rats were hemorrhaged to a mean arterial blood pressure (MAP) of less than or equal to 30 mmHg for a period of 30 minutes. At the end of the HS period (t=30 min), animals were injected with either vehicle (1 mL LR) or drug in 1 mL LR, followed by fluid resuscitation with 1 mL bolus injections of LR to maintain a systolic blood pressure (SBP) of 90 mmHg or a MAP of 60 mmHg. To avoid fluid overload, bolus injections of LR were limited to 1 mL/min. […] Animals were then resuscitated until t=90 min. At t=0, 15, 30, 60 and 90 min, blood samples were obtained, and plasma prepared. Samples were stored at -70° C. until further processing. At t=90 min, animals were euthanized (isoflurane inhalation, bilateral pneumothorax).

CCR2 = CCR2 (Homo sapiens, UniProt P41597); conditions: read-out: Kd, binding affinity of CCL2 for CCR2; cited from earlier work
CCR5 = conditions: cited from earlier work
CCR3 [2] = target: T1, CCR3 (Homo sapiens, UniProt P51677); conditions: cited from earlier work
T1 sequence (P51677 1-355): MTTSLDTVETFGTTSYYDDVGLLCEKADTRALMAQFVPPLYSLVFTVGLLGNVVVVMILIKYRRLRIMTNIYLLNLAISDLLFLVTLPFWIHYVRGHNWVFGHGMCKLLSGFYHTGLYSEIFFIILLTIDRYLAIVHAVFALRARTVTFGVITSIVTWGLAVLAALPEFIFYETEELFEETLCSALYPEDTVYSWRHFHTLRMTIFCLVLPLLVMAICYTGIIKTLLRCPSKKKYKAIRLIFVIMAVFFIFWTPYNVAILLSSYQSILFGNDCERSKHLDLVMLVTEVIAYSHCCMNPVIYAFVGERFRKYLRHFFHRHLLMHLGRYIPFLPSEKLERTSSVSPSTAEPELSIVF

hemorrhagic shock [3] = experiment: Example 2 Series 2: 60 min hemorrhagic shock, single dose, fluid resuscitation until t=300 min; type: in vivo, rat
Procedure: (§1) The hemorrhagic shock models were performed as described previously, with slight modifications (DeSantis A J, et al., The Chemokine (C-C Motif) Receptor 2 Antagonist INCB3284 Reduces Fluid Requirements and Protects From Hemodynamic Decompensation During Resuscitation From Hemorrhagic Shock. Crit Care Explor 2022;4(5):e0701; Bach H H, et al., Chemokine (C-X-C motif) receptor 4 and atypical chemokine receptor 3 regulate vascular alpha(1)-adrenergic receptor function. Mol Med 2014; 20:435-47; Nassoiy S P, et al., Effects of the Kv7 voltage activated potassium channel inhibitor linopirdine in rat models of hemorrhagic shock. Clin Exp Pharmacol Physiol 2018. doi: 10.1111/1440-1681.12958. PubMed PMID: 29702725; Bach H H, et al., Proteasome inhibition prolongs survival during lethal hemorrhagic shock in rats. J Trauma Acute Care Surg 2013; 74(2):499-507). In brief, anesthesia induction was performed with the animal and isoflurane-soaked gauze placed in a bell jar. After anesthesia induction, the animals were transferred to the operative field and anesthesia was maintained with 2.7% isoflurane administered via nose-cone inhalation with the SomnoSuite small animal anesthesia system (Kent Scientific Corporation, Torrington, CT, USA). […] Using a direct cut-down technique, the left femoral artery was isolated and cannulated with a 24-gauge peripheral intravenous catheter to allow for blood withdrawal, hemodynamic monitoring, drug administration, and fluid resuscitation. After catheter placement, isoflurane was decreased to 1.5%. Hemodynamics were continuously monitored with the Surgivet invasive blood pressure monitor (Med-Electronics, Beltsville, MD, USA). Blood pressures were recorded at 1-5 min intervals during the hemorrhage and resuscitation periods. Four subsequent series of experiments were performed. All experiments in each series were performed in alternating order. In all experiments animals were continuously monitored and remained under general anesthesia until euthanasia or death, as defined by asystole or loss of pulse pressure.
Series 2: Rats were hemorrhaged to a MAP of less than or equal to 30 mmHg for a period of 60 min, followed by fluid resuscitation until t=300 min as in Series 1. At the end of the hemorrhagic shock period (t=60 min), animals were injected with 1 mL of normal saline (NS) (n=6), 5 μmol/kg (n=6) INCB3284 in 1 mL NS or 1.1 μmol/kg SB 328437 (n=6) in 1 mL NS at t=60 min. At t=0 min, 60 min, 120 min, 180 min, 240 min and 300 min, blood samples (0.3 ml) were obtained and used for arterial blood gas analyses and measurements of routine laboratory parameters. At t=300 min, surviving animals were euthanized (5% isoflurane inhalation, bilateral pneumothorax).
Arterial blood gases and routine laboratory parameters. Arterial blood gases, electrolytes, creatinine, lactate, hematocrit and hemoglobin were analyzed using the Element point of care veterinary blood gas, electrolyte and critical care analyzer (Cuattro Veterinary USA, Loveland, CO, USA).

severe hemorrhagic shock = experiment: Example 2 Series 4: lethal hemorrhage without fluid resuscitation; type: in vivo, rat; conditions: 5 μmol/kg INCB3284 or 1 μmol/kg SB328437 after 40% TBV hemorrhage
Procedure: as §1
Series 4: The purpose of these experiments was to determine whether treatment with the chemokine receptor antagonists increases shock tolerance, blood pressure and survival time without additional fluid resuscitation. As such, death is an intentional endpoint. Earlier endpoints are unable to answer these questions and alternatives are not available. Rats were hemorrhaged 40% total blood volume (TBV) within 10 min. At t=15 min, animals were injected with vehicle (1 mL NS, n=3), 5 μmol/kg INCB3284 in 1 mL NS (n=5) or […] SB 328437 in 1 mL NS (n=5). Animals were then hemorrhaged 2% TBV every 5 minutes until death.

hemorrhagic shock [4] = experiment: Example 2 Series 1: 30 min hemorrhagic shock, fluid resuscitation until t=90 min; type: in vivo, rat
Procedure: as §1
Series 1: To assess the effects of SB328437 treatment after hemorrhagic shock and fluid resuscitation, and to be able to compare findings with the previous study on the effects of CCR2 and CCR5 inhibition, rats were hemorrhaged to a mean arterial blood pressure (MAP) of less than or equal to 30 mmHg for a period of 30 minutes. At the end of the hemorrhagic shock period (t=30 min), animals were injected with either vehicle (1 mL lactated Ringer's solution (LR), n=5), 0.25 μmol/kg SB328437 (n=3) or 1.1 μmol/kg SB328437 (n=3) in 1 mL LR, followed by fluid resuscitation with 1 mL bolus injections of LR to maintain a systolic blood pressure of 90 mm Hg or an MAP of 60 mm Hg until t=90 min, as described. To avoid fluid overload, bolus injections of LR were limited to 1 mL/min. At t=90 min, surviving animals were euthanized (5% isoflurane inhalation, bilateral pneumothorax).

CCR3 [5] = target: T1, CCR3; conditions: read-out: IC50, CCR3 antagonist; cited from earlier work
solubility = type: physicochemical

Chain of CCR2 (P41597 whole entry, species assumed): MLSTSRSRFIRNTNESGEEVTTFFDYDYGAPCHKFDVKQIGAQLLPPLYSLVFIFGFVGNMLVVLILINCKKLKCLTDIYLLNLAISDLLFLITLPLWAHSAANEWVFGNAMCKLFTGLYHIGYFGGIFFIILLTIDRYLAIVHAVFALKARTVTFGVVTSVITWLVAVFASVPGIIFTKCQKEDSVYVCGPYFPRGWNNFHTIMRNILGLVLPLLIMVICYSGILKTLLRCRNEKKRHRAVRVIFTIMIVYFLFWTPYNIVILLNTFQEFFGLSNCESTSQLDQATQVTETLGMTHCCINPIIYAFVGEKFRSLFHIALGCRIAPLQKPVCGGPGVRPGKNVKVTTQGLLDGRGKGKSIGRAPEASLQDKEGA

Maraviroc
effect on fluid requirements (hemorrhagic shock [1]): did not affect fluid requirements

CCL2: principal endogenous agonist of chemokine (C-C motif) receptor 2 (CCR2)
Kd (CCR2): ~0.5 nM | binding affinity of CCL2 for CCR5 lower than for CCR2 (CCR5): more than 100 fold | binding affinity of CCL2 for CCR3 lower than for CCR2 (CCR3 [2]): more than 100 fold

COC(=O)[C@H](Cc1ccc([N+](=O)[O-])cc1)NC(=O)c1cccc2ccccc12 [SB328437]
median survival time (hemorrhagic shock [3]; 1.1 μmol/kg SB328437 or 5 μmol/kg INCB3284 at t=60 min): 290 min | animals that survived the resuscitation period (hemorrhagic shock [3]; 1.1 μmol/kg SB328437 or 5 μmol/kg INCB3284 at t=60 min, until t=300 min, n=6): 3 of 6 | fluid requirements (hemorrhagic shock [3]; 1.1 μmol/kg at t=60 min): could not be significantly reduced | MAP during fluid resuscitation (hemorrhagic shock [3]; 1.1 μmol/kg at t=60 min, between t=140-200 min): lower | MAP during subsequent 2% TBV hemorrhages in 5 min intervals (severe hemorrhagic shock; no fluid resuscitation): indistinguishable among groups | median survival time (severe hemorrhagic shock; not significantly different between groups): 64 min | Fluid requirements to achieve the MAP target vs vehicle (hemorrhagic shock [4]; 0.25 μmol/kg at t=30 min): comparable | MAP vs vehicle treated animals (hemorrhagic shock [4]; 0.25 μmol/kg at t=30 min): indistinguishable | fluid requirements (mean±SE) (hemorrhagic shock [4]; 0.25 μmol/kg at t=30 min, until t=90 min): 53 ± 7 mL/kg | MAP at the end of the resuscitation period (t=80-90 min) (hemorrhagic shock [4]; 1.1 μmol/kg at t=30 min): higher | reduction of fluid requirements (hemorrhagic shock [4]; 1.1 μmol/kg at t=30 min, until t=90 min, vs vehicle): 63±4% | fluid requirements (mean±SE) (hemorrhagic shock [4]; 1.1 μmol/kg at t=30 min, until t=90 min, p<0.05 vs. vehicle): 19.5 ± 2 mL/kg | IC50 (CCR3 [5]): 4.5 nM | solubility (solubility): limited
